Data from patent US9708306B2, “Benzimidazole derivatives and preparation process and pharmaceutical uses thereof” (WUHAN LL SCIENCE AND TECHNOLOGY DEVELOPMENT CO., LTD, priority 2015, dated 2017).
Where two headings read alike, the source gives them in different places.

Legend:
[1] = system: renovascular hypertensive rats; assay: Effect on reducing blood pressure of renovascular hypertensive rats by single oral administration; type: in vivo, Wistar rats; conditions: for change in vivo at 0.5 mg/kg / inhibition in vivo at 0.5 mg/kg / change in vivo at 1 mg/kg / inhibition in vivo at 1 mg/kg / change in vivo at 2 mg/kg / inhibition in vivo at 2 mg/kg: Rattus norvegicus, single oral administration; for change in vivo at 0.5 mg/kg / change in vivo at 1 mg/kg / change in vivo at 2 mg/kg: RHR, read-out: Variations on heart rate; for inhibition in vivo at 0.5 mg/kg / inhibition in vivo at 1 mg/kg / inhibition in vivo at 2 mg/kg: two-kidney one-clip RHR, measured 1-10 h, read-out: Maximum blood pressure reduction; for blood pressure reduction at 24 hours after the administration / blood pressure reduction effect compared with Azilsartan medoxomil / lasting time of the blood pressure reduction effect compared with Azilsartan medoxomil: renal artery-ligated rat; for blood pressure reduction at 24 hours after the administration: dose not stated; for blood pressure reduction effect compared with Azilsartan medoxomil / lasting time of the blood pressure reduction effect compared with Azilsartan medoxomil: result in words
[2] = system: spontaneously hypertensive rats (SHR); assay: Effect on reducing blood pressure of spontaneously hypertensive rats (SHR) by multiple oral administrations; type: in vivo; conditions: for inhibition in vivo at 0.5 mg/kg / inhibition in vivo at 1 mg/kg / inhibition in vivo at 2 mg/kg: Rattus norvegicus; for inhibition in vivo at 0.5 mg/kg / inhibition in vivo at 1 mg/kg / inhibition in vivo at 2 mg/kg / blood pressure reduction effect compared with Azilsartan medoxomil: SHR; for blood pressure reduction effect compared with Azilsartan medoxomil / reduction effects on the heart rate of SHR rats: result in words; for reduction effects on the heart rate of SHR rats: during the whole administration
normal rats = assay: Effect on blood pressure of normal rats by single oral administration; type: in vivo, Wistar rats; conditions: Rattus norvegicus, po, single, normal rats; for inhibition in vivo at 0.5 mg/kg / inhibition in vivo at 1 mg/kg / inhibition in vivo at 2 mg/kg: 8 h, read-out: blood pressure reduction at 8 h after the administration; for inhibition in vivo at 0.5 mg/kg / change in vivo at 0.5 mg/kg: 0.5 mg/kg p.o.; for inhibition in vivo at 1 mg/kg / change in vivo at 1 mg/kg: 1.0 mg/kg p.o.; for inhibition in vivo at 2 mg/kg / change in vivo at 2 mg/kg: 2.0 mg/kg p.o.; for change in vivo at 0.5 mg/kg / change in vivo at 1 mg/kg / change in vivo at 2 mg/kg: read-out: variations on heart rate
[3] = 0.5 mg/kg oral once per day, 1 hour after the administration, read-out: Maximum blood pressure reduction, 1st-day administration
[4] = 0.5 mg/kg oral once per day, 1 hour after the administration, read-out: Maximum blood pressure reduction, 7th-day administration
[5] = 0.5 mg/kg oral once per day, 1 hour after the administration, read-out: Maximum blood pressure reduction, 14th-day administration
[6] = 0.5 mg/kg oral, read-out: Heart Rate (effect on reducing heart rate)
[7] = 1.0 mg/kg oral once per day, 1 hour after the administration, read-out: Maximum blood pressure reduction, 1st-day administration
[8] = 1.0 mg/kg oral once per day, 1 hour after the administration, read-out: Maximum blood pressure reduction, 7th-day administration
[9] = 1.0 mg/kg oral once per day, 1 hour after the administration, read-out: Maximum blood pressure reduction, 14th-day administration
[10] = 1.0 mg/kg oral, read-out: Heart Rate (effect on reducing heart rate)
[11] = 2.0 mg/kg oral once per day, 1 hour after the administration, read-out: Maximum blood pressure reduction, 1st-day administration
[12] = 2.0 mg/kg oral once per day, 1 hour after the administration, read-out: Maximum blood pressure reduction, 7th-day administration
[13] = 2.0 mg/kg oral once per day, 1 hour after the administration, read-out: Maximum blood pressure reduction, 14th-day administration
[14] = 2.0 mg/kg oral, read-out: Heart Rate (effect on reducing heart rate)

Row | SMILES | change in vivo at 0.5 mg/kg [1] [%] | inhibition in vivo at 0.5 mg/kg [1] [%] | change in vivo at 1 mg/kg [1] [%] | inhibition in vivo at 1 mg/kg [1] [%] | change in vivo at 2 mg/kg [1] [%] | inhibition in vivo at 2 mg/kg [1] [%] | blood pressure reduction at 24 hours after the administration [1] [%] | blood pressure reduction effect compared with Azilsartan medoxomil [1] | lasting time of the blood pressure reduction effect compared with Azilsartan medoxomil [1] | inhibition in vivo at 0.5 mg/kg [2, 3] [%] | inhibition in vivo at 0.5 mg/kg [2, 4] [%] | inhibition in vivo at 0.5 mg/kg [2, 5] [%] | inhibition in vivo at 0.5 mg/kg [2, 6] [%] | inhibition in vivo at 1 mg/kg [2, 7] [%] | inhibition in vivo at 1 mg/kg [2, 8] [%] | inhibition in vivo at 1 mg/kg [2, 9] [%] | inhibition in vivo at 1 mg/kg [2, 10] [%] | inhibition in vivo at 2 mg/kg [2, 11] [%] | inhibition in vivo at 1 mg/kg (normal rats) [%] | change in vivo at 1 mg/kg (normal rats) [%] | other results
1 | CCOc1nc2cccc(C(=O)OCc3no[n+]([O-])c3CO[N+](=O)[O-])c2n1Cc1ccc(-c2ccccc2-c2noc(=O)[nH]2)cc1 [QR01034] | -12 ± 8 | 23 ± 1.9 | -15 ± 7 | 36 ± 4.8 | -21 ± 7 | 45 ± 6 | 25 | obviously superior to that of the Azilsartan medoxomil positive drug | close to that of Azilsartan medoxomil | 25 ± 8.1 | 28 ± 7.4 | 26 ± 5.1 | 19 ± 2 | 39 ± 7.5 | 39 ± 6.8 | 42 ± 5.9 | 15 ± 4 | 44 ± 8.6 | 5.1 ± 3.6 | 5 | inhibition in vivo at 2 mg/kg [2, 12]: 45 ± 7%; inhibition in vivo at 2 mg/kg [2, 13]: 46 ± 7.3%; inhibition in vivo at 2 mg/kg [2, 14]: 21 ± 3%; blood pressure reduction effect compared with Azilsartan medoxomil [2]: obviously superior to that of the Azilsartan medoxomil positive drug; reduction effects on the heart rate of SHR rats [2]: significant reduction effects on the heart rate; inhibition in vivo at 0.5 mg/kg (normal rats): 3.4 ± 2.6%; inhibition in vivo at 2 mg/kg (normal rats): 3.4 ± 5%; change in vivo at 0.5 mg/kg (normal rats): -2 ± 5%; change in vivo at 2 mg/kg (normal rats): -2 ± 5%
2 | CCOc1nc2cccc(C(=O)OCc3oc(=O)oc3C)c2n1Cc1ccc(-c2ccccc2-c2noc(=O)[nH]2)cc1 [Azilsartan medoxomil, reference compound] |  |  | -7 ± 3 | 30 ± 3.8 |  |  | 20 |  |  |  |  |  |  | 32 ± 3.5 | 34 ± 2.8 | 36 ± 3.6 | 8 ± 3 |  | 6.4 ± 2.1 | -5 ± 2 | 
3 | CCOc1nc2cccc(C(=O)OCc3no[n+]([O-])c3C#N)c2n1Cc1ccc(-c2ccccc2-c2noc(=O)[nH]2)cc1 [QR01036] | -12 ± 9 | 19 ± 3.5 | -18 ± 7 | 38 ± 4.2 | -25 ± 7 | 46 ± 5 | 24 | obviously superior to that of the Azilsartan medoxomil positive drug | close to that of Azilsartan medoxomil | 20 ± 5.3 | 24 ± 8.6 | 24 ± 5.9 | 14 ± 4 | 35 ± 7.8 | 35 ± 4.6 | 40 ± 7.8 | 25 ± 2 | 46 ± 9.2 | 5.2 ± 3.5 | -8 ± 2 | inhibition in vivo at 2 mg/kg [2, 12]: 45 ± 8.3%; inhibition in vivo at 2 mg/kg [2, 13]: 48 ± 7.2%; inhibition in vivo at 2 mg/kg [2, 14]: 21 ± 3%; blood pressure reduction effect compared with Azilsartan medoxomil [2]: obviously superior to that of the Azilsartan medoxomil positive drug; reduction effects on the heart rate of SHR rats [2]: significant reduction effects on the heart rate; inhibition in vivo at 0.5 mg/kg (normal rats): 2.8 ± 2.1%; inhibition in vivo at 2 mg/kg (normal rats): 6.3 ± 2%; change in vivo at 0.5 mg/kg (normal rats): -1 ± 6%; change in vivo at 2 mg/kg (normal rats): -5 ± 5%
4 | CCOc1nc2cccc(C(=O)OCOC(=O)OCc3no[n+]([O-])c3C)c2n1Cc1ccc(-c2ccccc2-c2noc(=O)[nH]2)cc1 [QR01020] | -15 ± 3 | 25 ± 4.3 | -28 ± 6 | 34 ± 6.8 | -25 ± 8 | 48 ± 2.6 | 15 | obviously superior to that of the Azilsartan medoxomil positive drug | close to that of Azilsartan medoxomil | 19 ± 6.8 | 18 ± 6.9 | 21 ± 4.6 | 16 ± 4 | 30 ± 5.5 | 32 ± 8.3 | 35 ± 6.2 | 25 ± 3 | 36 ± 5.3 | 3.9 ± 4.3 | -7 ± 3 | inhibition in vivo at 2 mg/kg [2, 12]: 42 ± 7.5%; inhibition in vivo at 2 mg/kg [2, 13]: 43 ± 7%; inhibition in vivo at 2 mg/kg [2, 14]: 18 ± 5%; reduction effects on the heart rate of SHR rats [2]: significant reduction effects on the heart rate; inhibition in vivo at 0.5 mg/kg (normal rats): 2.8 ± 5.3%; inhibition in vivo at 2 mg/kg (normal rats): 5.6 ± 3.2%; change in vivo at 0.5 mg/kg (normal rats): -1 ± 4%; change in vivo at 2 mg/kg (normal rats): 3%
5 | CCOc1nc2cccc(C(=O)OC(C)OC(=O)OCc3nc(C)c(C)nc3C)c2n1Cc1ccc(-c2ccccc2-c2noc(=O)[nH]2)cc1 (stereo not shown) [QR01019] | 12 ± 4 | 24 ± 4 | 25 ± 8 | 38 ± 3.8 | 28 ± 6 | 45 ± 7.5 | 26 | obviously superior to that of the Azilsartan medoxomil positive drug | close to that of Azilsartan medoxomil | 16 ± 6.2 | 15 ± 7.9 | 18 ± 4.5 | 20 ± 6 | 36 ± 6.3 | 38 ± 4.6 | 35 ± 6.7 | 18 ± 4 | 42 ± 4.8 | 4.2 ± 3.5 | -4 ± 6 | inhibition in vivo at 2 mg/kg [2, 12]: 46 ± 6.7%; inhibition in vivo at 2 mg/kg [2, 13]: 48 ± 8.6%; inhibition in vivo at 2 mg/kg [2, 14]: 29 ± 2%; blood pressure reduction effect compared with Azilsartan medoxomil [2]: obviously superior to that of the Azilsartan medoxomil positive drug; reduction effects on the heart rate of SHR rats [2]: significant reduction effects on the heart rate; inhibition in vivo at 0.5 mg/kg (normal rats): 2.4 ± 3%; inhibition in vivo at 2 mg/kg (normal rats): 4.5 ± 6.5%; change in vivo at 0.5 mg/kg (normal rats): -5 ± 5%; change in vivo at 2 mg/kg (normal rats): 8%
